Reference: ChEMBL document CHEMBL1145204, “Carbonic anhydrase inhibitors: synthesis and inhibition of cytosolic/membrane-associated carbonic anhydrase isozymes I, II, and IX with sulfonamides incorporating hydrazino moieties” (J Med Chem, 2005)

Each molecule was assayed against Carbonic anhydrase 1 (Homo sapiens, UniProt P00915).
Carbonic anhydrase 1, sequence (P00915 whole entry): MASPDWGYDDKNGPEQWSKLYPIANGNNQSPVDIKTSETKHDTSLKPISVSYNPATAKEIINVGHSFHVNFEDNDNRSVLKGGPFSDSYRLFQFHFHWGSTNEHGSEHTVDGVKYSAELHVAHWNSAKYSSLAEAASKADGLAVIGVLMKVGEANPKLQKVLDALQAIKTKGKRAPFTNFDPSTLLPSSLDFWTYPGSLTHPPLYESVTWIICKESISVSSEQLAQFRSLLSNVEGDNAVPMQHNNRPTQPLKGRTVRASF
Description: Inhibitory activity against Carbonic anhydrase I

| Ki [nM] | SMILES |
| --- | --- |
| 3900 | NNc1ccc(S(N)(=O)=O)cc1 |

These molecules were tested against Carbonic anhydrase 9 (Homo sapiens, UniProt Q16790).
Description: Inhibitory activity against Carbonic anhydrase IX

| SMILES | Ki [nM] |
| --- | --- |
| NS(=O)(=O)c1ccc(C(=O)NNC(=O)NC2c3ccccc3-c3ccccc32)cc1 | 13 |
| NNc1ccc(S(N)(=O)=O)cc1Cl | 149 |
| NS(=O)(=O)c1ccccc1C(=O)NNC(=O)NS(=O)(=O)c1ccccc1 | 76 |
| NS(=O)(=O)c1ccc(C(=O)NNC(=O)Nc2ccc(Oc3ccccc3)cc2)cc1 | 7.9 |
| NS(=O)(=O)c1ccc(C(=O)NNC(=O)NS(=O)(=O)c2ccccc2)cc1 | 35 |
| NS(=O)(=O)c1ccc(C(=O)NNC(=O)Nc2ccc(-c3ccccc3)cc2)cc1 | 5.4 |
| NNC(=O)c1ccccc1S(N)(=O)=O | 547 |
| NS(=O)(=O)c1ccccc1C(=O)NNC(=O)NS(=O)(=O)c1ccc(Cl)cc1 | 72 |
| NS(=O)(=O)c1ccc(C(=O)O)cc1 [CARZENIDE] | 346 |
| Cc1ccccc1S(=O)(=O)NC(=O)NNC(=O)c1ccccc1S(N)(=O)=O | 83 |
| COC(=O)c1ccccc1S(N)(=O)=O | 680 |
| NNc1ccc(S(N)(=O)=O)cc1F | 136 |

Continued, values first:

| Ki [nM] | SMILES |
| --- | --- |
| 70 | Cc1ccc(S(=O)(=O)NC(=O)NNC(=O)c2ccccc2S(N)(=O)=O)cc1 |
| 64 | NS(=O)(=O)c1ccccc1C(=O)NNC(=O)NS(=O)(=O)c1ccc(F)cc1 |
| 32 | Cc1ccccc1S(=O)(=O)NC(=O)NNC(=O)c1ccc(S(N)(=O)=O)cc1 |
| 24 | NS(=O)(=O)c1ccc(C(=O)NNC(=O)Nc2ccc(C34CC5CC(CC(C5)C3)C4)cc2)cc1 |
| 8.6 | NS(=O)(=O)c1ccc(C(=O)NNC(=O)Nc2ccc(Br)cc2)cc1 |
| 8.3 | CC(=O)c1ccc(NC(=O)NNC(=O)c2ccc(S(N)(=O)=O)cc2)cc1 |
| 7.9 | NS(=O)(=O)c1ccc(C(=O)NNC(=O)Nc2ccc(Cl)c(Cl)c2)cc1 |
| 7 | NS(=O)(=O)c1ccc(C(=O)NNC(=O)Nc2ccc(Cc3ccccc3)cc2)cc1 |
| 6.2 | NS(=O)(=O)c1ccc(C(=O)NNC(=O)NS(=O)(=O)c2ccc(F)cc2)cc1 |
| 5.8 | Cc1ccc(S(=O)(=O)NC(=O)NNC(=O)c2ccc(S(N)(=O)=O)cc2)cc1 |
| 5.4 | NS(=O)(=O)c1ccc(C(=O)NNC(=O)NS(=O)(=O)c2ccc(Cl)cc2)cc1 |
